Patent publication US20050187240A1, “Aaptamine and isoaaptamine and structural modifications thereof” (The Arizona Board of Regents, Acting for and on behalf of …, priority 2004, published 2005)
Counter-ions that a name gives are not always drawn. Like-named read-outs stand apart in the source and are kept apart here.

Tests used:
colon KM 20L2 = experiment: Cancer cell growth inhibition, colon KM 20L2; assay type: cell-based, human; details: Homo sapiens, colon KM 20L2
From the text: (§1) Evaluation of demethyloxyaaptamine (3), aaptamine (1), isoaaptamine (2) and hystatin 1 (11) against the Arizona State University Cancer Research Institute's human tumor cell line panel (Table 1) and the NCI 60-cell line human tumor screen were undertaken. (Boyd, M. R., Cancer: Principles and Practices of Oncology Updates; DeVita, et al., Eds; Lippincott: Philadelphia, 1989, Vol. 10, No. 3, pp. 1-12; Boyd, et al., Drug Development Research 1995, 34, 91-109; Boyd, M. R., et al. Cytotoxic Anticancer Drugs: Models and Concepts for Drug Discovery and Development; Valeriote, A., et al., Eds, Kluwer Academic Publishers: Amsterdam, 1992, pp. 11-34.)
(§2) Biology The cancer cell growth inhibitory properties were examined using the murine P388 lymphocytic leukemia cell line and a selection of human cancer cell lines.
(§3) All of the synthetic products were evaluated against a minipanel of human cancer cell lines, the murine P388 lymphocytic leukemia cell line and a selection of microorganisms.

Micrococcus luteus = experiment: Broth microdilution susceptibility assay, Micrococcus luteus; assay type: cell-based
Candida albicans = experiment: Broth microdilution susceptibility assay, Candida albicans; assay type: cell-based
Enterobacter cloacae = experiment: Broth microdilution susceptibility assay, Enterobacter cloacae; assay type: cell-based
CNS SF-268 = experiment: Cancer cell growth inhibition, CNS SF-268; assay type: cell-based, human; details: Homo sapiens, CNS SF-268
Description: as §2, §3

[1] = test system: murine P388 lymphocytic leukemia cell line; experiment: Cancer cell growth inhibition, murine P388 lymphocytic leukemia cell line; assay type: cell-based; details: for IC50: Mus musculus
From the text: as §1, §2, §3

Streptococcus pneumoniae = experiment: Broth microdilution susceptibility assay, Streptococcus pneumoniae; assay type: cell-based
lung NCI-H460 = experiment: Cancer cell growth inhibition, lung NCI-H460; assay type: cell-based, human; details: Homo sapiens, lung NCI-H460
From the text: as §1, §2, §3

pancreas BXPC-3 = experiment: Cancer cell growth inhibition, pancreas BXPC-3; assay type: cell-based, human; details: Homo sapiens, pancreas BXPC-3
Description: as §2, §3

prostrate DU-145 = experiment: Cancer cell growth inhibition, prostate DU-145; assay type: cell-based, human; details: Homo sapiens
Description: as §2, §3

PKC alpha [2] = molecular target: T1, PKC alpha (Homo sapiens, UniProt P17252); experiment: Inhibition of [3H]phorbol 12,13-dibutyrate binding to PKC alpha; details: 30 μM compound; read-out: inhibition of [3H]phorbol 12,13-dibutyrate binding to PKC alpha
Description: Isoaaptamine (2) and derivatives 4, 5, 7, 8, and 14-18 were evaluated as ligands for PKC, based on the initial report of activity for isoaaptamine (Patil, et al., PCT Int. Appl. WO 95/0584 March 1995). Activity was measured at 30 μM compound using inhibition of [^3H-20]phorbol 12,13-dibutyrate binding to PKC alpha as described previously (Kazanietz, M. G., et al., Molecular Pharmacol., 1993, 44, 298). Assays were carried out with triplicate measurements in either single or triplicate experiments, depending on the compound.
Compounds 4, 5, 9a-c, and 10a-d were evaluated as ligands for PKC, based on the initial report of activity for isoaaptamine. Activity was measured at 30 μM compound using inhibition of [20-^3H]phorbol 12,13-dibutyrate binding to PKC alpha as described previously (Kazanietz, M. G., et al., Characterization of Ligand and Substrate Specificity for the Calcium-Dependent and Calcium-Independent Protein Kinase C Isoenzymes, Molecular Pharmacol. 1993, 44, 298-307). Assays were carried out with triplicate measurement in either single or triplicate experiments, depending on the compound. Inhibition by 9a and 9b was 6.4% and 9.2%, respectively. That by 10a, 10b, and 10d was 11.8%, 12.6%, and 16.0%, respectively. That by other derivatives was 5% or less. We conclude that these compounds show only very weak activity as ligands for PKC.

breast MCF-7 = experiment: Cancer cell growth inhibition, breast MCF-7; assay type: cell-based, human; details: Homo sapiens, MCF7, breast MCF-7
Description: as §2, §3

Neisseria gonorrhoeae = experiment: Broth microdilution susceptibility assay, Neisseria gonorrhoeae; assay type: cell-based
PKC alpha [3] = molecular target: T1, PKC alpha; experiment: Inhibition of PKC catalytic activity (peptide substrate phosphorylation); assay type: biochemical; details: 30 μM compound; 1 μM phorbol 12-myristate 13-acetate, 100 μg/ml phospholipid; mean±SEM, three experiments; read-out: percent inhibition of PKC catalytic activity
From the text: We further evaluated the ability of the derivatives to inhibit PKC catalytic activity. […] Inhibition by 10c was 19.5±7.6% and inhibition by 4, 5, and 9a, b, c was 6% or less (all values are mean±SEM, three experiments). […] In both cases, the inhibition curves were steeper than predicted for a competitive inhibitor, consistent with a complicated mechanism of action (Hill coefficients for 10a and 10b of 1.5±0.1 and 2.0±0.5, respectively).

Staphylococcus aureus = experiment: Broth microdilution susceptibility assay, Staphylococcus aureus; assay type: cell-based
Escherichia coli = experiment: Broth microdilution susceptibility assay, Escherichia coli; assay type: cell-based
[4] = test system: Stenotrophomonas maltophilia; experiment: Broth microdilution susceptibility assay, Stenotrophomonas maltophilia; assay type: cell-based
Cryptococcus neoformans = experiment: Broth microdilution susceptibility assay, Cryptococcus neoformans; assay type: cell-based
Enterococcus faecalis = experiment: Broth microdilution susceptibility assay, Enterococcus faecalis; assay type: cell-based
[5] = Table 5, read-out: Cancer Cell Line Results ED50
[6] = Table 3, read-out: Cancer cell growth inhibitory ED50
[7] = Table 4, read-out: Range of minimum inhibitory concentration

COc1ccc(C[n+]2ccc3c4c(cc(OC)c(OC)c42)C=CN3Cc2cc(OC)c(OC)c(OC)c2)cc1O.[Br-] [Compound 10d, 8,9-Dimethoxy-1-(3-hydroxy-4-methoxybenzyl)-4-(3,4,5-trimethoxybenzyl)-4H-benzo[de][1,6]naphthyridin-1-ium bromide]
> 10 µg/mL: IC50 (colon KM 20L2; [5]) | IC50 (CNS SF-268; [5]) | IC50 ([1]; Table 5, leukemia P388, read-out: Cancer Cell Line Results ED50) | IC50 (lung NCI-H460; [5]) | IC50 (pancreas BXPC-3; [5]) | IC50 (prostrate DU-145; DU-145, Table 5, prostate DRU-145, read-out: Cancer Cell Line Results ED50) | IC50 (breast MCF-7; [5])
16%: inhibition at 30 µM (PKC alpha [2])
43.2 ± 10.1%: inhibition at 30 µM (PKC alpha [3])
* (no inhibition at 64 μg/mL): Range of minimum inhibitory concentration (Candida albicans; Table 6) | Range of minimum inhibitory concentration (Enterobacter cloacae; Table 6) | Range of minimum inhibitory concentration (Streptococcus pneumoniae; Table 6) | Range of minimum inhibitory concentration (Neisseria gonorrhoeae; Table 6) | Range of minimum inhibitory concentration (Staphylococcus aureus; Table 6) | Range of minimum inhibitory concentration (Escherichia coli; Table 6) | Range of minimum inhibitory concentration ([4]; Table 6) | Range of minimum inhibitory concentration (Cryptococcus neoformans; Table 6) | Range of minimum inhibitory concentration (Enterococcus faecalis; Table 6)
8 to 16 µg/mL: Range of minimum inhibitory concentration (Micrococcus luteus; Table 6)

COc1cc2c3c(ccnc3c1O)N(C)C=C2 [Compound 8, 4-Methyl-8-methoxy-9-hydroxy-4H-benzo[de][1,6]naphthyridine]
> 10 µg/mL: IC50 (colon KM 20L2; [6]) | IC50 (CNS SF-268; [6]) | IC50 ([1]; P388, Table 3, leukemia P-388, read-out: Cancer cell growth inhibitory ED50) | IC50 (lung NCI-H460; [6]) | IC50 (pancreas BXPC-3; [6]) | IC50 (prostrate DU-145; Table 3, prostrate DU-145, read-out: Cancer cell growth inhibitory ED50) | IC50 (breast MCF-7; [6])
> 64 µg/mL: MIC (Micrococcus luteus; [7]) | MIC (Candida albicans; [7]) | MIC (Enterobacter cloacae; [7]) | MIC (Streptococcus pneumoniae; [7]) | MIC (Staphylococcus aureus; [7]) | MIC (Escherichia coli; [7]) | MIC ([4]; Table 4, Stenotrophomonas maltophil, read-out: Range of minimum inhibitory concentration) | MIC (Cryptococcus neoformans; [7]) | MIC (Enterococcus faecalis; [7])
4 µg/mL: MIC (Neisseria gonorrhoeae; [7])

COC1=Cc2ccnc3ccnc(c23)C1(OC)OC [Compound 12]
59 µg/mL: P388 ED50 ([1]; murine P388)

Oc1cc2ccnc3c2c(c1O)NC=C3 (as salt: hydrobromid) [Compound 15, 8,9-Dihydroxy-1H-Benzo[de][1,6]naphthyridine hydrobromide]
245 to 248 °C (dec.): melting point
